Source: patent US9328090B2, “Arylethynyl derivatives” (Hoffmann-La Roche Inc., priority 2012, dated 2016)

Target: T1, human mGlu5a receptor (Homo sapiens, UniProt P41594)
T1 construct: expressed in transfected cells; host or cells: HEK-293 (monoclonal, stably transfected)
Test: Intracellular Ca2+ mobilization assay (mGlu5 PAM)
Type: cell-based
Details: for EC50: HEK-293 cells stably transfected with human mGlu5a, L-glutamate added at EC20; for Efficacy [%]: maximal response in % of the maximal stimulatory effect obtained with saturating L-glutamate
Procedure: A monoclonal HEK-293 cell line stably transfected with a cDNA encoding for the human mGlu5a receptor was generated; for the work with mGlu5 Positive Allosteric Modulators (PAMs), a cell line with low receptor expression levels and low constitutive receptor activity was selected to allow the differentiation of agonistic versus PAM activity. Cells were cultured according to standard protocols (Freshney, 2000) in Dulbecco's Modified Eagle Medium with high glucose supplemented with 1 mM glutamine, 10% (vol/vol) heat-inactivated bovine calf serum, Penicillin/Streptomycin, 50 μg/ml hygromycin and 15 μg/ml blasticidin (all cell culture reagents and antibiotics from Invitrogen, Basel, Switzerland).
About 24 hrs before an experiment, 5×10^4 cells/well were seeded in poly-D-lysine coated, black/clear-bottomed 96-well plates. The cells were loaded with 2.5 μM Fluo-4AM in loading buffer (1×HBSS, 20 mM HEPES) for 1 hr at 37° C. and washed five times with loading buffer. The cells were transferred into a Functional Drug Screening System 7000 (Hamamatsu, Paris, France), and 11 half logarithmic serial dilutions of test compound at 37° C. were added and the cells were incubated for 10-30 min. with on-line recording of fluorescence. Following this pre-incubation step, the agonist L-glutamate was added to the cells at a concentration corresponding to EC20 (typically around 80 μM) with on-line recording of fluorescence; in order to account for day-to-day variations in the responsiveness of cells, the EC20 of glutamate was determined immediately ahead of each experiment by recording of a full dose-response curve of glutamate.
Responses were measured as peak increase in fluorescence minus basal (i.e. fluorescence without addition of L-glutamate), normalized to the maximal stimulatory effect obtained with saturating concentrations of L-glutamate. Graphs were plotted with the % maximal stimulatory using XLfit, a curve fitting program that iteratively plots the data using Levenburg Marquardt algorithm. The single site competition analysis equation used was y=A+((B−A)/(1+((x/C)D))), where y is the % maximal stimulatory effect, A is the minimum y, B is the maximum y, C is the EC50, x is the log 10 of the concentration of the competing compound and D is the slope of the curve (the Hill Coefficient). From these curves the EC50 (concentration at which half maximal stimulation was achieved), the Hill coefficient as well as the maximal response in % of the maximal stimulatory effect obtained with saturating concentrations of L-glutamate were calculated.
A depression of the signal observed after addition of the EC20 concentration of L-glutamate was indicative of an inhibitory activity of the test compound.

T1 sequence (P41594 21-1180 isoform P41594-2 limits assumed): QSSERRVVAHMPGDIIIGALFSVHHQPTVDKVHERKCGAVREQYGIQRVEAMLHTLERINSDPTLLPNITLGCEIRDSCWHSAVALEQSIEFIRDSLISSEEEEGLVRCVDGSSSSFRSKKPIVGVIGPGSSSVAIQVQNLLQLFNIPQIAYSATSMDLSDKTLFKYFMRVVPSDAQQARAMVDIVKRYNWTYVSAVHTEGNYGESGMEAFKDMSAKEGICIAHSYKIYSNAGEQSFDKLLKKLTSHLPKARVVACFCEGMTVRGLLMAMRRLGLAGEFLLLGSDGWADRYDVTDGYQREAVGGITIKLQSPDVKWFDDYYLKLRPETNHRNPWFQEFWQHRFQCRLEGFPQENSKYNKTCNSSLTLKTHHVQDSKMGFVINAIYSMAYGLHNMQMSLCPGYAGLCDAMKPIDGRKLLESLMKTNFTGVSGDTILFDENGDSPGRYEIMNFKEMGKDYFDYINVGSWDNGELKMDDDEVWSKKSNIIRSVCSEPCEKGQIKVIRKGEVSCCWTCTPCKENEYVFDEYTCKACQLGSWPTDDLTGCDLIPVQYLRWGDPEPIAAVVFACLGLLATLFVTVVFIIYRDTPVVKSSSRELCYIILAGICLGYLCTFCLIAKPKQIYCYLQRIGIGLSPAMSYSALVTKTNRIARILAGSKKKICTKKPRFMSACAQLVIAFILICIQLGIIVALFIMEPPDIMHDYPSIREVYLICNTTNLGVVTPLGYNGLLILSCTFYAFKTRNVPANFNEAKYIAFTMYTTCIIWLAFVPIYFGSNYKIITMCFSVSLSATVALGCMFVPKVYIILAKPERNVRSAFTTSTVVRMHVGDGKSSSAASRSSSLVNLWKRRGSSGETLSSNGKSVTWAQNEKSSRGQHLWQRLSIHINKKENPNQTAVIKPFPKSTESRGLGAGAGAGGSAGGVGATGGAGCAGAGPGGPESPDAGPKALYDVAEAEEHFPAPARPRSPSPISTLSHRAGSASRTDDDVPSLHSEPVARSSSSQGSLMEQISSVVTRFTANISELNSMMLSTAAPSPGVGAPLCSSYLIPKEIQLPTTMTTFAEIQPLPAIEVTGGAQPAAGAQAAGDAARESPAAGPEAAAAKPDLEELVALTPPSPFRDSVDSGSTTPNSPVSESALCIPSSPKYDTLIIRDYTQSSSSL

EC50 [nM] | Efficacy [%] | SMILES
10 | 45 | O=C1C[C@H]2CCC[C@H]2N1c1ccc(C#Cc2ccccc2)cn1 [Example 1, (3aR,6aR)-1-(5-(phenylethynyl)pyridin-2-yl)hexahydrocyclopenta[b]pyrrol-2(1H)-one]
10 | 48 | O=C1C[C@H]2CCC[C@H]2N1c1ccc(C#Cc2cccc(F)c2)cn1 [Example 2, (3aR,6aR)-1-(5-((3-Fluorophenyl)ethynyl)pyridin-2-yl)hexahydrocyclopenta[b]pyrrol-2(1H)-one]
10 | 44 | O=C1C[C@H]2CCC[C@H]2N1c1ccc(C#Cc2ccc(F)cc2)cn1 [Example 3, (3aR,6aR)-1-(5-((4-Fluorophenyl)ethynyl)pyridin-2-yl)hexahydrocyclopenta[b]pyrrol-2(1H)-one]
8 | 19 | O=C1C[C@H]2CCC[C@H]2N1c1ccc(C#Cc2cc(F)ccc2F)cn1 [Example 4, (3aR,6aR)-1-(5-((2,5-Difluorophenyl)ethynyl)pyridin-2-yl)hexahydrocyclopenta[b]pyrrol-2(1H)-one]
– | 129 | CC1(C)CC(=O)N(c2ccc(C#Cc3ccccc3)cn2)C1 [Ref. 1 Ex. 13, reference compound]
– | 100 | CC1(C)CC(=O)N(c2ccc(C#Cc3cccc(F)c3)cn2)C1 [Ref. 1 Ex. 40, reference compound]
– | 81 | O=C1CC2(CCCC2)CN1c1ccc(C#Cc2ccccc2)cn1 [Ref. 1 Ex. 59, reference compound]
